Data published in ChEMBL document CHEMBL1130465, “Peptidic prodrugs of novel aminomethyl-THF 1-methylcarbapenems” (1997).
In brackets after ≈: the same amount, converted by molar mass.

Legend:
Assay type in all cases: functional
[1] = tested on: Enterococcus faecalis; test: In vitro antimicrobial activity against Enterococcus faecalis GC 842 strain
[2] = tested on: Staphylococcus aureus; test: In vitro antimicrobial activity against Staphylococcus aureus ATCC 29213 strain
[3] = tested on: Enterococcus faecium; test: In vitro antimicrobial activity against Enterococcus faecium GC 1182 strain
[4] = tested on: Enterobacter cloacae; test: In vitro antimicrobial activity against Enterobacter cloacae GC 2209 strain
[5] = tested on: Escherichia coli; test: In vitro antimicrobial activity against Escherichia coli GC 1792 strain
[6] = tested on: Escherichia coli; test: In vitro antimicrobial activity against Escherichia coli GC 2205 strain
[7] = tested on: Stenotrophomonas maltophilia; test: In vitro antimicrobial activity against Xanthomonas maltophilia GC 562 strain
[8] = tested on: Pseudomonas aeruginosa; test: In vitro antimicrobial activity against Pseudomonas aeruginosa GC 1544 strain
[9] = tested on: Acinetobacter calcoaceticus; test: In vitro antimicrobial activity against Acinetobacter calcoaceticus GC 756 strain
[10] = tested on: Pseudomonas aeruginosa; test: In vitro antimicrobial activity against Pseudomonas aeruginosa ATCC 27853 strain
[11] = tested on: Morganella morganii; test: In vitro antimicrobial activity against Morganella morganii GC 2213 strain
[12] = tested on: Escherichia coli; test: In vitro antimicrobial activity against Escherichia coli ATCC 25922 strain
[13] = tested on: Staphylococcus aureus; test: In vitro antimicrobial activity against Staphylococcus aureus GC 2220 strain
[14] = tested on: Citrobacter freundii; test: In vitro antimicrobial activity against Citrobacter freundii GC 2211 strain
[15] = tested on: Mus musculus; test: Tested for oral activity against Staphylococcus aureus smith infection in mice after single subcutaneous dose(SSC)
[16] = tested on: Mus musculus; test: Tested for oral activity against Staphylococcus aureus smith infection in mice after single oral dose(SOD)
[17] = Ratio of ED50 of single oral dose to ED50 of single subcutaneous dose against Staphylococcus aureus smith infection in mice
[18] = species on record: Mus musculus; test: animal or person
Description: Tested for oral activity against Escherichia coli #311 infection in mice after single subcutaneous dose(SSC)

[19] = species on record: Mus musculus; test: animal or person; remark: listed apart in the source
Description: Tested for oral activity against Escherichia coli #311 infection in mice after single oral dose(SOD)

[20] = Enterococcus faecalis, read-out: MIC
[21] = Enterococcus faecium, read-out: MIC
[22] = Escherichia coli, read-out: MIC
[23] = Pseudomonas aeruginosa, read-out: MIC
[24] = Acinetobacter calcoaceticus, read-out: MIC
[25] = Pseudomonas aeruginosa, ATCC 27853, read-out: MIC
[26] = Morganella morganii, read-out: MIC
[27] = Staphylococcus aureus, read-out: MIC
[28] = Citrobacter freundii, read-out: MIC
[29] = Mus musculus, po, read-out: ED50

Compound	MIC [1, 20] [µg/mL]	MIC [2] [µg/mL]	MIC [3, 21] [µg/mL]	MIC [4] [µg/mL]	MIC [5, 22] [µg/mL]	MIC [6] [µg/mL]	MIC [7] [µg/mL]	MIC [8, 23] [µg/mL]	MIC [9, 24] [µg/mL]	MIC [10, 25] [µg/mL]	MIC [11, 26] [µg/mL]	MIC [12] [µg/mL]	MIC [13, 27] [µg/mL]	MIC [14, 28] [µg/mL]	ED50 ([15]; Mus musculus, read-out: ED50) [mg/kg]	ED50 [16, 29] [mg/kg]	Ratio [17]	ED50 ([18]; Mus musculus, read-out: ED50) [mg/kg]	ED50 [19, 29] [mg/kg]	also measured
C[C@@H](O)[C@H]1C(=O)N2C(C(=O)O)=C(S[C@@H]3CCO[C@@H]3CN)[C@H](C)[C@H]12		≤ 0.06		≤ 0.06	≤ 0.06	≤ 0.06	> 128	16 (≈ 46.7 µM)	2 (≈ 5.84 µM)	8 (≈ 23.4 µM)	0.5 (≈ 1.46 µM)	≤ 0.06	1 (≈ 2.92 µM)	≤ 0.06	0.04	0.88	22	0.34	3.8	MIC [1]: 0.5 µg/mL (≈ 1.46 µM); MIC [3]: 64 µg/mL (≈ 187 µM)
C[C@H]1C(SC2COC(CN)C2)=C(C(=O)O)N2C(=O)[C@H]([C@@H](C)O)C12 (stereo in doubt; trans)	2 (≈ 5.84 µM)	< 0.06	128 (≈ 374 µM)	< 0.06	0.06 (≈ 0.175 µM)	< 0.06	> 128	8 (≈ 23.4 µM)		4 (≈ 11.7 µM)	0.25 (≈ 0.73 µM)	< 0.06	8 (≈ 23.4 µM)	0.06 (≈ 0.175 µM)		1.7	16	0.27	3.7	ED50 [15]: 0.11 mg/kg; MIC [9]: 1 µg/mL (≈ 2.92 µM)
C[C@@H](O)[C@H]1C(=O)N2C(C(=O)O)=C(SCCNC=N)C[C@H]12.O [IMIPENEM]	1	< 0.06	64	< 0.06	< 0.06	0.12	> 128	16	0.25	1	1	0.12	1	0.25						
C[C@H]1C(SC2COC(CN)C2)=C(C(=O)O)N2C(=O)[C@H]([C@@H](C)O)C12 (stereo in doubt; cis)																	22			MIC [1]: 2 µg/mL (≈ 5.84 µM); MIC [3]: 128 µg/mL (≈ 374 µM); ED50 [15]: 0.05 mg/kg; ED50 [16]: 1.1 mg/kg; MIC [5]: <0.06 µg/mL; ED50 [18]: 0.28 mg/kg; MIC [8]: 16 µg/mL (≈ 46.7 µM); ED50 [19]: 3.5 mg/kg; MIC [9]: 20 µg/mL (≈ 58.4 µM); MIC [10]: 8 µg/mL (≈ 23.4 µM); MIC [11]: 0.5 µg/mL (≈ 1.46 µM); MIC [13]: 4 µg/mL (≈ 11.7 µM); MIC [14]: <0.06 µg/mL

More lines, main results first:

MIC [1, 20] [µg/mL]	MIC [2] [µg/mL]	MIC [3, 21] [µg/mL]	MIC [4] [µg/mL]	MIC [5, 22] [µg/mL]	MIC [6] [µg/mL]	MIC [7] [µg/mL]	MIC [8, 23] [µg/mL]	MIC [9, 24] [µg/mL]	MIC [10, 25] [µg/mL]	MIC [11, 26] [µg/mL]	MIC [12] [µg/mL]	MIC [13, 27] [µg/mL]	MIC [14, 28] [µg/mL]	Compound	ED50 ([15]; Mus musculus, read-out: ED50) [mg/kg]	ED50 [16, 29] [mg/kg]	Ratio [17]	ED50 ([18]; Mus musculus, read-out: ED50) [mg/kg]	ED50 [19, 29] [mg/kg]	also measured
8 (≈ 23.4 µM)	0.12 (≈ 0.35 µM)	> 128	0.12 (≈ 0.35 µM)	0.12 (≈ 0.35 µM)	0.12 (≈ 0.35 µM)	> 128	32 (≈ 93.5 µM)	16 (≈ 46.7 µM)	16 (≈ 46.7 µM)	2 (≈ 5.84 µM)	0.12 (≈ 0.35 µM)	16 (≈ 46.7 µM)	0.5 (≈ 1.46 µM)	C[C@H]1C(S[C@@H]2COC[C@@H]2CN)=C(C(=O)O)N2C(=O)[C@H]([C@@H](C)O)C12 (stereo partly specified)						
2 (≈ 5.01 µM)	0.12 (≈ 0.3 µM)	> 128	< 0.06	< 0.06	< 0.06	> 128	64 (≈ 160 µM)	8 (≈ 20 µM)	8 (≈ 20 µM)	0.5 (≈ 1.25 µM)	< 0.06	8 (≈ 20 µM)	0.5 (≈ 1.25 µM)	C[C@H]1C(S[C@@H]2CCO[C@@H]2CNC(=O)CN)=C(C(=O)O)N2C(=O)[C@H]([C@@H](C)O)C12 (stereo partly specified)	0.15	0.41	2.7	0.56	1.4	
2 (≈ 4.84 µM)	0.5 (≈ 1.21 µM)	128 (≈ 310 µM)	0.25 (≈ 0.605 µM)	< 0.06	< 0.06	> 128	32 (≈ 77.4 µM)	8 (≈ 19.3 µM)	8 (≈ 19.3 µM)	1 (≈ 2.42 µM)	< 0.06	32 (≈ 77.4 µM)	2 (≈ 4.84 µM)	C[C@@H](N)C(=O)NC[C@H]1COC[C@H]1SC1=C(C(=O)O)N2C(=O)[C@H]([C@@H](C)O)C2[C@H]1C (stereo partly specified)	0.11	4	36			
16 (≈ 38.7 µM)	0.5 (≈ 1.21 µM)	> 128	1 (≈ 2.42 µM)	0.25 (≈ 0.605 µM)	0.25 (≈ 0.605 µM)	> 128	128 (≈ 310 µM)	16 (≈ 38.7 µM)	64 (≈ 155 µM)	2 (≈ 4.84 µM)	0.25 (≈ 0.605 µM)	8 (≈ 19.3 µM)	4 (≈ 9.67 µM)	C[C@@H](N)C(=O)NC[C@@H]1COC[C@@H]1SC1=C(C(=O)O)N2C(=O)[C@H]([C@@H](C)O)C2[C@H]1C (stereo partly specified)	0.11	4.5	41			
2 (≈ 4.39 µM)	0.25 (≈ 0.549 µM)	> 128		0.25 (≈ 0.549 µM)	≤ 0.06	> 128	128 (≈ 281 µM)	64 (≈ 140 µM)	64 (≈ 140 µM)	2 (≈ 4.39 µM)	≤ 0.06	32 (≈ 70.2 µM)	4 (≈ 8.78 µM)	CC[C@@H](C)[C@@H](N)C(=O)NC[C@H]1OCC[C@H]1SC1=C(C(=O)O)N2C(=O)[C@H]([C@@H](C)O)C2[C@H]1C (stereo partly specified)	0.28	0.21	0.75	1.1	0.58	
